# Reference: patent US11214803B2, “Modulators of YAP1 expression” (Ionis Pharmaceuticals, Inc., priority 2019, dated 2022)
# Strand notation (5' to 3'): a small letter for the sugar, then the base; units joined by * are phosphorothioate-linked, units joined directly phosphodiester-linked; [ ] holds rarer units or linkages, { } end groups; capitals alone tell only the bases. k = constrained ethyl (cEt); [5mC] = 5-methylcytosine; d = 2'-deoxy (DNA)
# System: Yap1 mRNA
# Assay: Antisense inhibition of human Yap1 in A-431 cells by cEt gapmers, single dose (Example 3, RTS36584)
# Format: cell-based
# Settings: Table 8; A-431 cells, 5,000 cells per well, free uptake, 2,000 nM, approximately 48 hours; RTS36584; normalized to RIBOGREEN; Yap1 mRNA relative to untreated control cells
# Outline: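 A-431 cells were treated by free uptake with 2,000 nM modified oligonucleotide (3-10-3 cEt gapmers, full phosphorothioate, 5-methylcytosines) for about 48 hours. Yap1 mRNA was quantified by real-time RT-PCR, normalized to RiboGreen total RNA, and expressed as % of untreated control; asterisked values mark oligonucleotides targeting the amplicon region.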
row,Substance,YAP1 (% UTC)
1,958373 (antisense kA*kG*kG*dT*dG*d[5mC]*dT*dA*dG*d[5mC]*dT*dG*dG*kT*kG*k[5mC]) [Compound 958373],8

# Same assay, conditions: Table 9; A-431 cells, 5,000 cells per well, free uptake, 2,000 nM, approximately 48 hours; RTS36584; normalized to RIBOGREEN; Yap1 mRNA relative to untreated control cells
row,Substance,YAP1 (% UTC)
1,958751 (antisense kT*k[5mC]*kA*dA*dT*dG*d[5mC]*dA*dG*dG*dA*dT*dT*k[5mC]*k[5mC]*kA) [Compound 958751],30
2,958641 (antisense kA*kG*k[5mC]*dT*dA*d[5mC]*dA*dG*dA*dG*d[5mC]*dT*dT*kA*kA*k[5mC]) [Compound 958641],102
3,958741 (antisense kG*kT*kT*dA*d[5mC]*dT*dG*d[5mC]*dA*dA*d[5mC]*dT*dG*k[5mC]*k[5mC]*k[5mC]) [Compound 958741],14

# Same assay, conditions: Table 10; A-431 cells, 5,000 cells per well, free uptake, 2,000 nM oligonucleotide, approx. 48 hours; primer probe set RTS36584; Yap1 mRNA normalized to RIBOGREEN, percent of untreated control
row,Substance,YAP1 (% UTC)
1,958467 (antisense kG*kG*kT*dG*dG*d[5mC]*dA*dG*d[5mC]*d[5mC]*dA*dA*dA*kA*k[5mC]*kA) [Compound 958467],32
2,958667 (kT*kG*k[5mC]*d[5mC]*dG*dG*dG*d[5mC]*d[5mC]*d[5mC]*d[5mC]*dT*dA*kT*kG*k[5mC]; antisense) [Compound 958667],80

# Same assay, conditions: Table 11; A-431 cells, 5,000 cells per well, free uptake, 2,000 nM oligonucleotide, approx. 48 hours; primer probe set RTS36584; Yap1 mRNA normalized to RIBOGREEN, percent of untreated control
row,Substance,YAP1 (% UTC)
1,958703 (antisense kG*kA*kT*dA*dA*d[5mC]*dT*dA*dA*dG*d[5mC]*dA*d[5mC]*kT*kA*k[5mC]) [Compound 958703],49
2,958458 (antisense kG*kT*kT*d[5mC]*dA*dT*d[5mC]*dT*dG*dG*dG*dA*d[5mC]*kA*kG*k[5mC]) [Compound 958458],12
3,958438 (antisense k[5mC]*kG*k[5mC]*d[5mC]*d[5mC]*d[5mC]*dG*dG*d[5mC]*dT*d[5mC]*d[5mC]*dA*k[5mC]*kT*kG) [Compound 958438],61
4,958583 (kA*kG*k[5mC]*dT*dA*dA*dT*d[5mC]*dT*dG*d[5mC]*dT*dG*kA*kT*kA; antisense) [Compound 958583],89
5,958743 (antisense kG*kA*k[5mC]*dT*dA*dT*dA*dA*dA*dG*dG*dG*dT*kT*kT*kA) [Compound 958743],30
6,958663 (k[5mC]*kT*kA*dT*dT*dA*dG*dG*dG*dA*d[5mC]*dT*dG*kA*kA*k[5mC]; antisense) [Compound 958663],32

# Same assay, conditions: Table 12; A-431 cells, 5,000 cells per well, free uptake, 2,000 nM modified oligonucleotide, approx. 48 hours; RTS36584; normalized to RIBOGREEN; Yap1 mRNA relative to untreated control cells
row,Substance,YAP1 (% UTC)
1,958584 (k[5mC]*k[5mC]*k[5mC]*dT*dA*dA*dG*d[5mC]*dT*dA*dA*dA*dG*k[5mC]*kT*kA; antisense) [Compound 958584],74
2,958479 (antisense kA*kT*kG*dG*dA*dA*dA*dT*dT*dT*d[5mC]*d[5mC]*dG*kG*kT*kG) [Compound 958479],15
3,958514 (kT*kA*k[5mC]*dT*dA*dG*dT*d[5mC]*dA*dT*dG*dT*dA*kT*kT*k[5mC]; antisense) [Compound 958514],20
4,958664 (kA*k[5mC]*kG*dA*dA*d[5mC]*dT*dA*dA*dG*dG*dT*dG*kT*kA*k[5mC]; antisense) [Compound 958664],40
5,958489 (kT*kT*k[5mC]*dT*dA*dA*dG*dT*d[5mC]*dT*dG*dA*dG*kT*kA*kT; antisense) [Compound 958489],14
6,958794 (antisense kT*kT*k[5mC]*d[5mC]*dG*d[5mC]*dA*dT*dT*dG*d[5mC]*d[5mC]*dT*kA*kA*kG) [Compound 958794],14
7,958804 (antisense kA*kG*kA*dT*dA*dA*dT*d[5mC]*dA*dT*d[5mC]*d[5mC]*dT*k[5mC]*kA*kG) [Compound 958804],17

# Same assay, conditions: Table 13; A-431 cells, 5,000 cells per well, free uptake, 2,000 nM modified oligonucleotide, approx. 48 hours; RTS36584; normalized to RIBOGREEN; Yap1 mRNA relative to untreated control cells
row,Substance,YAP1 (% UTC)
1,958655 (kG*k[5mC]*kA*dA*dT*d[5mC]*dT*dG*dT*dG*dA*dT*d[5mC]*k[5mC]*k[5mC]*kA; antisense) [Compound 958655],12
2,958700 (antisense k[5mC]*kT*kA*dA*dT*dA*dT*dA*dG*dA*d[5mC]*dT*dA*k[5mC]*kT*k[5mC]) [Compound 958700],55
3,958490 (kG*kT*kG*dA*d[5mC]*dA*dT*dG*dA*dA*dG*d[5mC]*dA*kT*k[5mC]*kT; antisense) [Compound 958490],5

# Same assay, conditions: Table 26; Yap1 mRNA by 3-10-3 cEt gapmers targeting SEQ ID NO.: 1, and 2; percent of untreated control
row,Substance,YAP1 (% UTC)
1,1075020 (antisense kT*kT*kA*dA*dT*dT*dA*dG*d[5mC]*dA*dT*dT*dA*kG*kA*kG) [compound 1075020],30
2,1076268 (kG*kT*kA*d[5mC]*dA*dA*dT*dA*dA*dT*dG*d[5mC]*dT*kT*k[5mC]*k[5mC]; antisense) [compound 1076268],10

# Same assay, conditions: Table 27; Yap1 mRNA by 3-10-3 cEt gapmers targeting SEQ ID NO.: 1, and 2; percent of untreated control
row,Substance,YAP1 (% UTC)
1,1075949 (antisense kT*kA*kG*dG*dA*dA*d[5mC]*dA*d[5mC]*d[5mC]*dA*dA*dG*kG*kT*kT) [compound 1075949],48
2,1074765 (k[5mC]*kA*kA*dT*dG*d[5mC]*dT*dA*d[5mC]*d[5mC]*d[5mC]*dA*dA*kT*kA*k[5mC]; antisense) [compound 1074765],34
3,1075437 (antisense kT*kA*kT*dT*dA*dG*dT*dA*d[5mC]*dG*dA*dG*d[5mC]*kT*kA*k[5mC]) [compound 1075437],85
4,1075469 (antisense kT*kG*kA*dT*dA*dT*dA*dA*dT*dG*dA*d[5mC]*d[5mC]*kA*kA*kG) [compound 1075469],25

# Same assay, conditions: Table 28; Yap1 mRNA as percent of untreated control; 3-10-3 cEt gapmers targeting SEQ ID NO.: 1, and 2
row,Substance,YAP1 (% UTC)
1,1075022 (antisense kA*kT*kT*dT*dA*d[5mC]*dA*dA*d[5mC]*d[5mC]*dT*dA*dG*kA*kT*kT) [compound 1075022],91
2,1074478 (k[5mC]*k[5mC]*kT*dA*dG*dG*dT*dT*d[5mC]*d[5mC]*dG*dA*d[5mC]*kA*kA*kA; antisense) [compound 1074478],69

# Same assay, conditions: Table 29; Yap1 mRNA as percent of untreated control; 3-10-3 cEt gapmers targeting SEQ ID NO.: 1, and 2
row,Substance,YAP1 (% UTC)
1,1075183 (kA*kT*kT*dA*d[5mC]*dT*dA*dA*dG*dA*d[5mC]*dA*dG*kT*kG*kG; antisense) [compound 1075183],15
2,1075375 (antisense k[5mC]*kT*kA*dA*dA*dT*dA*dT*d[5mC]*dA*dA*d[5mC]*dT*k[5mC]*k[5mC]*k[5mC]) [compound 1075375],35
3,1075823 (kT*kA*kT*dT*dA*dG*dA*dG*dG*dT*dT*d[5mC]*d[5mC]*kA*kG*kG; antisense) [compound 1075823],30

# Same assay, conditions: Table 34; Yap1 mRNA as percent of untreated control; 3-10-3 cEt gapmers targeting SEQ ID NO: 1 and 2; single dose
row,Substance,YAP1 (% UTC)
1,1075892 (antisense k[5mC]*kA*k[5mC]*d[5mC]*dA*dA*dT*dA*d[5mC]*d[5mC]*dA*dA*dA*kG*kT*k[5mC]) [compound 1075892],54
2,1075668 (antisense kA*kA*kT*dT*dA*dT*dT*dG*dG*dT*dG*dA*d[5mC]*kA*k[5mC]*kT) [compound 1075668],80
3,1076116 (kG*kA*kA*dA*dA*dT*dA*dG*d[5mC]*d[5mC]*d[5mC]*dA*dT*kT*kA*kG; antisense) [compound 1076116],25
4,1075060 (antisense kG*kT*kT*dT*dA*dA*d[5mC]*dA*dA*dT*d[5mC]*dT*d[5mC]*k[5mC]*k[5mC]*k[5mC]) [compound 1075060],70
5,1076372 (antisense k[5mC]*kA*kA*dT*dA*dA*dG*dA*dA*d[5mC]*dG*dA*dA*k[5mC]*k[5mC]*kT) [compound 1076372],76

# Same assay, conditions: Table 35; Yap1 mRNA as percent of untreated control; 3-10-3 cEt gapmers targeting SEQ ID NO: 1 and 2; single dose
row,Substance,YAP1 (% UTC)
1,1076117 (k[5mC]*kT*kA*dG*dA*dA*dA*dA*dT*dA*dG*d[5mC]*d[5mC]*k[5mC]*kA*kT; antisense) [compound 1076117],15
2,1075029 (antisense kA*kT*kA*dT*dT*d[5mC]*dG*dA*d[5mC]*dA*d[5mC]*dT*dG*kG*kA*kG) [compound 1075029],33
3,1075381 (antisense kT*kA*kT*dT*dA*d[5mC]*d[5mC]*d[5mC]*dT*dA*d[5mC]*dT*d[5mC]*kA*kT*kA) [compound 1075381],89
4,1075285 (antisense kT*kA*kT*dA*d[5mC]*dA*dT*dA*dG*dT*d[5mC]*dA*dA*kT*kT*k[5mC]) [compound 1075285],60
5,1074293 (antisense kG*k[5mC]*kT*dG*dT*dT*dT*d[5mC]*dA*d[5mC]*dT*dG*dG*kA*kG*k[5mC]) [compound 1074293],54
